# Data reported in PubChem BioAssay (NCI).
#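 These data come from cells grown in 96-well plates and exposed to compound for 48 hours at five concentrations. Definition used: TGI = concentration required for complete inhibition of growth.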
# Assays:
# Test in all cases: NCI-60 cell line screen, 48 h
# LXFL 529 NSCLC = system: LXFL 529 NSCLC
# A498 renal = system: A498 renal
# COLO 205 colon = system: COLO 205 colon
# SK-MEL-5 melanoma = system: SK-MEL-5 melanoma
# HT29 colon = system: HT29 colon
# M19-MEL melanoma = system: M19-MEL melanoma
# UO-31 renal = system: UO-31 renal
# U251 CNS = system: U251 CNS
# MALME-3M melanoma = system: MALME-3M melanoma
# NCI-H226 lung = system: NCI-H226 lung
# KM12 colon = system: KM12 colon
# HCT-15 colon = system: HCT-15 colon
# DLD-1 colon = system: DLD-1 colon
# ACHN renal = system: ACHN renal
# HCC-2998 colon = system: HCC-2998 colon
# NCI-H23 lung = system: NCI-H23 lung
# DMS 114 small cell lung = system: DMS 114 small cell lung
# RPMI-8226 leukemia = system: RPMI-8226 leukemia
# HOP-62 NSCLC = system: HOP-62 NSCLC
# NCI-H522 lung = system: NCI-H522 lung
# OVCAR-8 ovarian = system: OVCAR-8 ovarian
# SR leukemia = system: SR leukemia
# SF-268 CNS = system: SF-268 CNS
# TK-10 renal = system: TK-10 renal
# SW-620 colon = system: SW-620 colon
# M14 melanoma = system: M14 melanoma
# MOLT-4 leukemia = system: MOLT-4 leukemia
# OVCAR-3 ovarian = system: OVCAR-3 ovarian
# SK-OV-3 ovarian = system: SK-OV-3 ovarian
# A549 NSCLC = system: A549 NSCLC
# SF-295 CNS = system: SF-295 CNS
# UACC-257 melanoma = system: UACC-257 melanoma
# K-562 leukemia = system: K-562 leukemia
# CCRF-CEM leukemia = system: CCRF-CEM leukemia
# HL-60(TB) leukemia = system: HL-60(TB) leukemia
# NCI-H460 lung = system: NCI-H460 lung
# SK-MEL-2 melanoma = system: SK-MEL-2 melanoma
# HOP-92 NSCLC = system: HOP-92 NSCLC
# IGROV1 ovarian = system: IGROV1 ovarian
# HCT-116 colon = system: HCT-116 colon
# SNB-78 CNS = system: SNB-78 CNS
# HOP-18 NSCLC = system: HOP-18 NSCLC
# OVCAR-4 ovarian = system: OVCAR-4 ovarian
# OVCAR-5 ovarian = system: OVCAR-5 ovarian
# SK-MEL-28 melanoma = system: SK-MEL-28 melanoma
# SF-539 CNS = system: SF-539 CNS
# SNB-75 CNS = system: SNB-75 CNS
# UACC-62 melanoma = system: UACC-62 melanoma
# 786-0 renal = system: 786-0 renal
# SN12C renal = system: SN12C renal
# DMS 273 small cell lung = system: DMS 273 small cell lung
# LOX IMVI melanoma = system: LOX IMVI melanoma
# CAKI-1 renal = system: CAKI-1 renal
# EKVX NSCLC = system: EKVX NSCLC
# SNB-19 CNS = system: SNB-19 CNS
# KM20L2 colon = system: KM20L2 colon
compound,measurement,setting,value
Clc1ccc(C2=NOC(C3CCCCC3)C2)cc1 (stereo not drawn),TGI,LXFL 529 NSCLC,> 100 µM
same,TGI,A498 renal,> 100 µM
same,TGI,COLO 205 colon,> 100 µM
same,TGI,SK-MEL-5 melanoma,> 100 µM
same,TGI,HT29 colon,> 100 µM
same,TGI,M19-MEL melanoma,> 100 µM
same,TGI,UO-31 renal,> 100 µM
same,TGI,U251 CNS,> 100 µM
same,TGI,MALME-3M melanoma,> 100 µM
same,TGI,NCI-H226 lung,> 100 µM
same,TGI,KM12 colon,> 100 µM
same,TGI,HCT-15 colon,> 100 µM
same,TGI,DLD-1 colon,> 100 µM
same,TGI,ACHN renal,> 100 µM
same,TGI,HCC-2998 colon,> 100 µM
same,TGI,NCI-H23 lung,> 100 µM
same,TGI,DMS 114 small cell lung,> 100 µM
same,TGI,RPMI-8226 leukemia,> 100 µM
same,TGI,HOP-62 NSCLC,> 100 µM
same,TGI,NCI-H522 lung,> 100 µM
same,TGI,OVCAR-8 ovarian,> 100 µM
same,TGI,SR leukemia,> 100 µM
same,TGI,SF-268 CNS,> 100 µM
same,TGI,TK-10 renal,> 100 µM
same,TGI,SW-620 colon,> 100 µM
same,TGI,M14 melanoma,> 100 µM
same,TGI,MOLT-4 leukemia,> 100 µM
same,TGI,OVCAR-3 ovarian,> 100 µM
same,TGI,SK-OV-3 ovarian,> 100 µM
same,TGI,A549 NSCLC,> 100 µM
same,TGI,SF-295 CNS,> 100 µM
same,TGI,UACC-257 melanoma,> 100 µM
same,TGI,K-562 leukemia,> 100 µM
same,TGI,CCRF-CEM leukemia,> 100 µM
same,TGI,HL-60(TB) leukemia,> 100 µM
same,TGI,NCI-H460 lung,> 100 µM
same,TGI,SK-MEL-2 melanoma,> 100 µM
same,TGI,HOP-92 NSCLC,> 100 µM
same,TGI,IGROV1 ovarian,> 100 µM
same,TGI,HCT-116 colon,> 100 µM
same,TGI,SNB-78 CNS,> 100 µM
same,TGI,HOP-18 NSCLC,> 100 µM
same,TGI,OVCAR-4 ovarian,> 100 µM
same,TGI,OVCAR-5 ovarian,> 100 µM
same,TGI,SK-MEL-28 melanoma,> 100 µM
same,TGI,SF-539 CNS,> 100 µM
same,TGI,SNB-75 CNS,> 100 µM
same,TGI,UACC-62 melanoma,> 100 µM
same,TGI,786-0 renal,> 100 µM
same,TGI,SN12C renal,> 100 µM
same,TGI,DMS 273 small cell lung,> 100 µM
O=C1[C@H]2ON(c3ccccc3)C(c3ccc(Cl)cc3Cl)[C@H]2C(=O)N1c1ccc(Cc2ccc(N3C(=O)[C@@H]4ON(c5ccccc5)C(c5ccc(Cl)cc5Cl)[C@@H]4C3=O)cc2)cc1 (stereo partly drawn),TGI,LXFL 529 NSCLC,> 100 µM
same,TGI,A498 renal,> 100 µM
same,TGI,COLO 205 colon,> 100 µM
same,TGI,LOX IMVI melanoma,> 100 µM
same,TGI,SK-MEL-5 melanoma,> 100 µM
same,TGI,HT29 colon,> 100 µM
same,TGI,M19-MEL melanoma,> 100 µM
same,TGI,UO-31 renal,> 100 µM
same,TGI,CAKI-1 renal,> 100 µM
same,TGI,U251 CNS,> 100 µM
same,TGI,MALME-3M melanoma,> 100 µM
same,TGI,NCI-H226 lung,> 100 µM
same,TGI,KM12 colon,> 100 µM
same,TGI,HCT-15 colon,> 100 µM
same,TGI,DLD-1 colon,> 100 µM
same,TGI,ACHN renal,> 100 µM
same,TGI,HCC-2998 colon,> 100 µM
same,TGI,NCI-H23 lung,> 100 µM
same,TGI,DMS 114 small cell lung,> 100 µM
same,TGI,RPMI-8226 leukemia,> 100 µM
same,TGI,HOP-62 NSCLC,> 100 µM
same,TGI,NCI-H522 lung,> 100 µM
same,TGI,OVCAR-8 ovarian,> 100 µM
same,TGI,SR leukemia,> 100 µM
same,TGI,SF-268 CNS,> 100 µM
same,TGI,TK-10 renal,> 100 µM
same,TGI,SW-620 colon,> 100 µM
same,TGI,EKVX NSCLC,> 100 µM
same,TGI,M14 melanoma,69 µM
same,TGI,MOLT-4 leukemia,> 100 µM
same,TGI,OVCAR-3 ovarian,> 100 µM
same,TGI,SK-OV-3 ovarian,> 100 µM
same,TGI,A549 NSCLC,> 100 µM
same,TGI,SF-295 CNS,> 100 µM
same,TGI,UACC-257 melanoma,> 100 µM
same,TGI,K-562 leukemia,> 100 µM
same,TGI,CCRF-CEM leukemia,> 100 µM
same,TGI,HL-60(TB) leukemia,> 100 µM
same,TGI,NCI-H460 lung,> 100 µM
same,TGI,SK-MEL-2 melanoma,> 100 µM
same,TGI,HOP-92 NSCLC,> 100 µM
same,TGI,IGROV1 ovarian,> 100 µM
same,TGI,HCT-116 colon,> 100 µM
same,TGI,SNB-78 CNS,> 100 µM
same,TGI,HOP-18 NSCLC,> 100 µM
same,TGI,SNB-19 CNS,> 100 µM
same,TGI,KM20L2 colon,> 100 µM
same,TGI,OVCAR-4 ovarian,> 100 µM
same,TGI,OVCAR-5 ovarian,> 100 µM
same,TGI,SK-MEL-28 melanoma,> 100 µM
same,TGI,SF-539 CNS,> 100 µM
same,TGI,SNB-75 CNS,> 100 µM
same,TGI,UACC-62 melanoma,> 100 µM
same,TGI,786-0 renal,> 100 µM
same,TGI,SN12C renal,> 100 µM
same,TGI,DMS 273 small cell lung,> 100 µM
CCCC(=O)c1ccc2c(ccc(=O)n2C)c1,TGI,LXFL 529 NSCLC,> 100 µM
same,TGI,A498 renal,> 100 µM
same,TGI,COLO 205 colon,> 100 µM
same,TGI,LOX IMVI melanoma,> 100 µM
same,TGI,SK-MEL-5 melanoma,> 100 µM
same,TGI,HT29 colon,> 100 µM
same,TGI,M19-MEL melanoma,> 100 µM
same,TGI,CAKI-1 renal,> 100 µM
same,TGI,U251 CNS,> 100 µM
same,TGI,MALME-3M melanoma,> 100 µM
same,TGI,NCI-H226 lung,> 100 µM
same,TGI,KM12 colon,> 100 µM
same,TGI,HCT-15 colon,> 100 µM
same,TGI,DLD-1 colon,> 100 µM
same,TGI,HCC-2998 colon,> 100 µM
same,TGI,NCI-H23 lung,> 100 µM
same,TGI,DMS 114 small cell lung,> 100 µM
same,TGI,RPMI-8226 leukemia,> 100 µM
same,TGI,HOP-62 NSCLC,> 100 µM
same,TGI,NCI-H522 lung,> 100 µM
same,TGI,OVCAR-8 ovarian,> 100 µM
same,TGI,SF-268 CNS,> 100 µM
same,TGI,TK-10 renal,> 100 µM
same,TGI,SW-620 colon,> 100 µM
same,TGI,EKVX NSCLC,> 100 µM
same,TGI,M14 melanoma,> 100 µM
same,TGI,MOLT-4 leukemia,> 100 µM
same,TGI,OVCAR-3 ovarian,> 100 µM
same,TGI,SK-OV-3 ovarian,> 100 µM
same,TGI,A549 NSCLC,> 100 µM
same,TGI,SF-295 CNS,> 100 µM
same,TGI,K-562 leukemia,> 100 µM
same,TGI,CCRF-CEM leukemia,> 100 µM
same,TGI,HL-60(TB) leukemia,> 100 µM
same,TGI,NCI-H460 lung,> 100 µM
same,TGI,SK-MEL-2 melanoma,> 100 µM
same,TGI,HOP-92 NSCLC,> 100 µM
same,TGI,IGROV1 ovarian,> 100 µM
same,TGI,HCT-116 colon,> 100 µM
same,TGI,HOP-18 NSCLC,> 100 µM
same,TGI,SNB-19 CNS,> 100 µM
same,TGI,KM20L2 colon,> 100 µM
same,TGI,OVCAR-4 ovarian,> 100 µM
same,TGI,OVCAR-5 ovarian,> 100 µM
same,TGI,SK-MEL-28 melanoma,> 100 µM
same,TGI,SF-539 CNS,> 100 µM
same,TGI,SNB-75 CNS,92.3 µM
same,TGI,UACC-62 melanoma,> 100 µM
same,TGI,786-0 renal,> 100 µM
same,TGI,SN12C renal,> 100 µM
same,TGI,DMS 273 small cell lung,> 100 µM
